In patent US12428406B2 (PMV Pharmaceuticals, Inc., priority 2019, dated 2025):

The compounds below were run against T1, p53 Y220C (Homo sapiens, UniProt P04637, Y220C) (assay: In vitro DNA binding activity assay (HTRF / TR-FRET): stabilization of p53 Y220C and increase of its DNA binding activity). Conditions: recombinant His-tagged p53 Y220C DNA binding domain (aa 94-312), biotin-labeled consensus DNA, incubated at 27° C. or 29° C. for 60 min.
T1 construct: The recombinant protein was a truncation mutant containing only amino acids 94-312 of p53; made in house; host or cells: E. coli
Type: biochemical
Summary of the method: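 Homogeneous time-resolved fluorescence with E. coli-derived p53 Y220C and biotinylated consensus DNA. Room-temperature incubations of 15 and 20 min precede reading. SC150 denotes the compound concentration required for 50% increased DNA binding.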

T1 sequence (P04637 94-312, change not shown): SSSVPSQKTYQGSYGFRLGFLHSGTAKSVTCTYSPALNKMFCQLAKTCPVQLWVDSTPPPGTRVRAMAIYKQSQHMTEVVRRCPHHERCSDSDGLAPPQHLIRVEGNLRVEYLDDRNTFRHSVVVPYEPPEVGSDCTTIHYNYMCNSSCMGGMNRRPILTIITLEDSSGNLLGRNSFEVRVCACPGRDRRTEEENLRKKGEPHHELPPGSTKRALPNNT

SC150 (concentration of the compound required to increase the DNA binding activity by 50%), +++ (+++ = 0.1 μM ≤ SC150 < 0.2 μM):
CN1CC[C@@H](Nc2cccc3c2cc(C#CCO)n3CC(F)(F)F)[C@@H](F)C1 [Compound 895A, 3-(4-(((3S,4R)-3-fluoro-1-methylpiperidin-4-yl)amino)-1-(2,2,2-trifluoroethyl)-1H-indol-2-yl)prop-2-yn-1-ol]

SC150 (concentration of the compound required to increase the DNA binding activity by 50%), ++++ (++++ = 0.2 μM ≤ SC150 < 1 μM):
CCCn1c(C#CCNc2c(F)cc(S(C)(=O)=O)cc2OC)cc2c(N[C@H]3CCN(C[C@@H](O)COC)C[C@H]3F)cccc21 [Compound 880A]

SC150 (concentration of the compound required to increase the DNA binding activity by 50%), + (+ = 0 μM ≤ SC150 < 0.05 μM):
COC[C@H](O)CN1CC[C@H](Nc2cccc3c2cc(C#CCNc2ccc(C(=O)OC)cc2OC)n3CC(F)(F)F)[C@H](F)C1 [Compound 879A]
COc1cc(S(N)(=O)=O)ccc1NCC#Cc1cc2c(N[C@@H]3CCN(C[C@@H](O)CO)C[C@@H]3F)cccc2n1CC(F)(F)F [Compound 882A]
COc1cc(S(N)(=O)=O)ccc1NCC#Cc1cc2c(N[C@H]3CCN(C[C@H](COC(C)=O)OC(C)=O)C[C@H]3F)cccc2n1CC(F)(F)F [Compound 888A, (2R)-1-(acetyloxy)-3-[(3R,4S)-3-fluoro-4-[(2-{3-[(2-methoxy-4-sulfamoylphenyl)amino]prop-1-yn-1-yl}-1-(2,2,2-trifluoroethyl)-1H-indol-4-yl)amino]piperidin-1-yl]propan-2-yl acetate]
COc1cc(S(N)(=O)=O)ccc1NCC#Cc1cc2c(N[C@@H]3CCN(C[C@H](COC(C)=O)OC(C)=O)C[C@@H]3F)cccc2n1CC(F)(F)F [Compound 890A, (2R)-1-(acetyloxy)-3-[(3S,4R)-3-fluoro-4-[(2-{3-[(2-methoxy-4-sulfamoylphenyl)amino]prop-1-yn-1-yl}-1-(2,2,2-trifluoroethyl)-1H-indol-4-yl)amino]piperidin-1-yl]propan-2-yl acetate]
COc1cc(S(C)(=O)=O)ccc1NCC#Cc1cc2c(N[C@H]3CCN(C(=O)CN)C[C@H]3F)cccc2n1CC(F)(F)F [Compound 892A]
COc1cc(S(C)(=O)=O)ccc1NCC#Cc1cc2c(N[C@@H]3CCN(C(=O)CN)C[C@@H]3F)cccc2n1CC(F)(F)F [Compound 893A]
COc1cc(S(C)(=O)=O)ccc1NCC#Cc1cc2c(N[C@H]3CCN(C[C@@H](C)O)C[C@H]3F)cccc2n1CC(F)(F)F [Compound 894A, 1-[(3R,4S)-3-fluoro-4-[(2-{3-[(4-methanesulfonyl-2-methoxyphenyl)amino]prop-1-yn-1-yl}-1-(2,2,2-trifluoroethyl)-1H-indol-4-yl)amino]piperidin-1-yl]propan-2-ol]
COc1cc(C(=O)NCC(=O)O)ccc1NCC#Cc1cc2c(N[C@@H]3CCN(C)C[C@@H]3F)cccc2n1CC(F)(F)F [Compound 896A, (4-((3-(4-(((3S,4R)-3-fluoro-1-methylpiperidin-4-yl)amino)-1-(2,2,2-trifluoroethyl)-1H-indol-2-yl)prop-2-yn-1-yl)amino)-3-methoxybenzoyl)glycine]
COCCN1CC[C@@H](Nc2cccc3c2cc(C#CCNc2ccc(C(=O)OC)cc2OC)n3CC(F)(F)F)[C@@H](F)C1 [Compound 897A]
COCCN1CC[C@@H](Nc2cccc3c2cc(C#CCNc2ccc(C(=O)O)cc2OC)n3CC(F)(F)F)[C@@H](F)C1 [Compound 898A]
COC(=O)c1ccc(NCC#Cc2cc3c(N[C@@H]4CCN(CCO)C[C@@H]4F)cccc3n2CC(F)(F)F)c(OC)c1 [Compound 899A, methyl 4-{[3-(4-{[(3S,4R)-3-fluoro-1-(2-hydroxyethyl)piperidin-4-yl]amino}-1-(2,2,2-trifluoroethyl)-1H-indol-2-yl)prop-2-yn-1-yl]amino}-3-methoxybenzoate]
COC(=O)c1ccc(NCC#Cc2cc3c(N[C@@H]4CCN(CC(N)=O)C[C@@H]4F)cccc3n2CC(F)(F)F)c(OC)c1 [Compound 901A, methyl 4-{[3-(4-{[(3S,4R)-1-(carbamoylmethyl)-3-fluoropiperidin-4-yl]amino}-1-(2,2,2-trifluoroethyl)-1H-indol-2-yl)prop-2-yn-1-yl]amino}-3-methoxybenzoate]
COCCN1CC[C@H](Nc2cccc3c2cc(C#CCNc2ccc(C(=O)OC)cc2OC)n3CC(F)(F)F)[C@H](F)C1 [Compound 902A]
COC(=O)c1ccc(NCC#Cc2cc3c(N[C@H]4CCN(CCO)C[C@H]4F)cccc3n2CC(F)(F)F)c(OC)c1 [Compound 903A, methyl 4-{[3-(4-{[(3R,4S)-3-fluoro-1-(2-hydroxyethyl)piperidin-4-yl]amino}-1-(2,2,2-trifluoroethyl)-1H-indol-2-yl)prop-2-yn-1-yl]amino}-3-methoxybenzoate]
COCCN1CC[C@H](Nc2cccc3c2cc(C#CCNc2ccc(C(=O)O)cc2OC)n3CC(F)(F)F)[C@H](F)C1 [Compound 904A]
COC(=O)c1ccc(NCC#Cc2cc3c(N[C@H]4CCN(C[C@@H](C)O)C[C@H]4F)cccc3n2CC(F)(F)F)c(OC)c1 [Compound 905A, methyl 4-{[3-(4-{[(3R,4S)-3-fluoro-1-(2-hydroxypropyl)piperidin-4-yl]amino}-1-(2,2,2-trifluoroethyl)-1H-indol-2-yl)prop-2-yn-1-yl]amino}-3-methoxybenzoate]
COc1cc(C(=O)N2CC3(COC3)C2)ccc1NCC#Cc1cc2c(N[C@@H]3CCN(C)C[C@@H]3F)cccc2n1CC(F)(F)F [Compound 906A, N-[(3S,4R)-3-fluoro-1-methylpiperidin-4-yl]-2-{3-[(2-methoxy-4-{2-oxa-6-azaspiro[3.3]heptane-6-carbonyl}phenyl)amino]prop-1-yn-1-yl}-1-(2,2,2-trifluoroethyl)-1H-indol-4-amine]
COc1cc(C(=O)N2CC3(CCOCC3)C2)ccc1NCC#Cc1cc2c(N[C@@H]3CCN(C)C[C@@H]3F)cccc2n1CC(F)(F)F [Compound 907A, N-[(3S,4R)-3-fluoro-1-methylpiperidin-4-yl]-2-{3-[(2-methoxy-4-{7-oxa-2-azaspiro[3.5]nonane-2-carbonyl}phenyl)amino]prop-1-yn-1-yl}-1-(2,2,2-trifluoroethyl)-1H-indol-4-amine]
COc1cc(C(=O)O)ccc1NCC#Cc1cc2c(N[C@@H]3CCN(CCO)C[C@@H]3F)cccc2n1CC(F)(F)F [Compound 908A, 4-{[3-(4-{[(3S,4R)-3-fluoro-1-(2-hydroxyethyl)piperidin-4-yl]amino}-1-(2,2,2-trifluoroethyl)-1H-indol-2-yl)prop-2-yn-1-yl]amino}-3-methoxybenzoic acid]
COc1cc(C(=O)N2CCOCC2)ccc1NCC#Cc1cc2c(N[C@@H]3CCN(C)C[C@@H]3F)cccc2n1CC(F)(F)F [Compound 909A]
COc1cc(C(=O)O)ccc1NCC#Cc1cc2c(N[C@H]3CCN(CCO)C[C@H]3F)cccc2n1CC(F)(F)F [Compound 912A, 4-{[3-(4-{[(3R,4S)-3-fluoro-1-(2-hydroxyethyl)piperidin-4-yl]amino}-1-(2,2,2-trifluoroethyl)-1H-indol-2-yl)prop-2-yn-1-yl]amino}-3-methoxybenzoic acid]
COC(=O)c1ccc(NCC#Cc2cc3c(N[C@@H]4CCN(CC(=O)N(C)C)C[C@@H]4F)cccc3n2CC(F)(F)F)c(OC)c1 [Compound 913A, methyl 4-{[3-(4-{[(3S,4R)-1-[(dimethylcarbamoyl)methyl]-3-fluoropiperidin-4-yl]amino}-1-(2,2,2-trifluoroethyl)-1H-indol-2-yl)prop-2-yn-1-yl]amino}-3-methoxybenzoate]
COC(=O)c1ccc(NCC#Cc2cc3c(N[C@H]4CCN(CC(=O)N(C)C)C[C@H]4F)cccc3n2CC(F)(F)F)c(OC)c1 [Compound 914A, methyl 4-{[3-(4-{[(3R,4S)-1-[(dimethylcarbamoyl)methyl]-3-fluoropiperidin-4-yl]amino}-1-(2,2,2-trifluoroethyl)-1H-indol-2-yl)prop-2-yn-1-yl]amino}-3-methoxybenzoate]
